Reference: PubChem BioAssay (NCI)
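These data come from cells grown in 96-well plates and exposed to compound for 48 hours at five concentrations. At the GI50, growth is halved. The concentration for full growth arrest is given as TGI.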

Key:
Assay in all cases: inhibition of tumour cell growth, NCI panel, 48 h
[1] = system: BT-549 breast
[2] = system: LOX IMVI melanoma
[3] = system: NCI-H460 lung
[4] = system: SF-268 CNS
[5] = system: HT29 colon
[6] = system: SNB-75 CNS
[7] = system: OVCAR-3 ovarian
[8] = system: HCC-2998 colon
[9] = system: NCI/ADR-RES ovarian
[10] = system: COLO 205 colon
[11] = system: OVCAR-4 ovarian
[12] = system: SK-MEL-5 melanoma
[13] = system: OVCAR-8 ovarian
[14] = system: UACC-62 melanoma
[15] = system: EKVX NSCLC
[16] = system: TK-10 renal
[17] = system: SK-OV-3 ovarian
[18] = system: A549 NSCLC
[19] = system: MCF7 breast
[20] = system: MOLT-4 leukemia
[21] = system: CCRF-CEM leukemia
[22] = system: UACC-257 melanoma
[23] = system: RPMI-8226 leukemia
[24] = system: NCI-H23 lung
[25] = system: HL-60(TB) leukemia
[26] = system: SNB-19 CNS
[27] = system: MDA-MB-435
[28] = system: MDA-MB-231 breast
[29] = system: IGROV1 ovarian
[30] = system: SK-MEL-28 melanoma
[31] = system: UO-31 renal
[32] = system: SK-MEL-2 melanoma
[33] = system: SN12C renal
[34] = system: SR leukemia
[35] = system: HS 578T breast
[36] = system: SF-295 CNS
[37] = system: 786-0 renal
[38] = system: PC-3 prostate
[39] = system: KM12 colon
[40] = system: SW-620 colon
[41] = system: K-562 leukemia
[42] = system: CAKI-1 renal
[43] = system: NCI-H226 lung
[44] = system: HCT-116 colon
[45] = system: M14 melanoma
[46] = system: HOP-62 NSCLC
[47] = system: NCI-H522 lung
[48] = system: OVCAR-5 ovarian
[49] = system: SF-539 CNS
[50] = system: HCT-15 colon
[51] = system: RXF 393 renal
[52] = system: DU-145 prostate
[53] = system: HOP-92 NSCLC
[54] = system: ACHN renal
[55] = system: A498 renal
[56] = system: MALME-3M melanoma
[57] = system: U251 CNS

CNCCC/C=C1\c2cc3c(cc2-c2c1c1cc(OC)c(OC)cc1c(=O)n2C)OCO3
GI50 [1]: 0.455 µM | TGI [1]: 4.33 µM | GI50 [2]: 0.322 µM | TGI [2]: 1.74 µM | GI50 [3]: 0.331 µM | GI50 [4]: 0.521 µM | TGI [4]: 10 µM | GI50 [5]: 0.658 µM | TGI [5]: 12 µM | GI50 [6]: 1.26 µM | TGI [6]: 11.9 µM | GI50 [7]: 0.985 µM | TGI [7]: 4.12 µM | GI50 [8]: 0.226 µM | TGI [8]: 2.47 µM | GI50 [9]: 1.53 µM | TGI [9]: 10.3 µM | GI50 [10]: 1.13 µM | GI50 [11]: 7.99 µM | TGI [11]: 44.3 µM | GI50 [12]: 0.435 µM | TGI [12]: 1.69 µM | GI50 [13]: 2.46 µM | TGI [13]: 19.8 µM | GI50 [14]: 0.248 µM | TGI [14]: 1.38 µM | GI50 [15]: 1.31 µM | TGI [15]: 5.7 µM | GI50 [16]: 1.83 µM | TGI [16]: 9.83 µM | GI50 [17]: 1.87 µM | GI50 [18]: 1.31 µM | TGI [18]: > 24.5 µM | GI50 [19]: 0.244 µM | TGI [19]: 0.813 µM | GI50 [20]: 0.137 µM | TGI [20]: 0.405 µM | GI50 [21]: 0.843 µM | TGI [21]: 10.9 µM | GI50 [22]: 3.09 µM | TGI [22]: > 100 µM | GI50 [23]: 1.24 µM | TGI [23]: 7.94 µM | GI50 [24]: 1.07 µM | TGI [24]: 5.31 µM | GI50 [25]: 2.22 µM | TGI [25]: 12 µM | GI50 [26]: 0.883 µM | TGI [26]: 24.7 µM | GI50 [27]: 1.96 µM | TGI [27]: 13.4 µM | GI50 [28]: 1.03 µM | TGI [28]: 5.31 µM | GI50 [29]: 0.487 µM | GI50 [30]: 1.4 µM | TGI [30]: 7.99 µM | GI50 [31]: 0.75 µM | GI50 [32]: 6.92 µM | TGI [32]: > 42.4 µM | GI50 [33]: 0.858 µM | TGI [33]: 5.31 µM | GI50 [34]: 0.211 µM | TGI [34]: 0.581 µM | GI50 [35]: 3.17 µM | TGI [35]: 30.3 µM | GI50 [36]: 0.322 µM | TGI [36]: 2.27 µM | GI50 [37]: 0.259 µM | TGI [37]: 2.31 µM | GI50 [38]: 1.12 µM | TGI [38]: 10.6 µM | GI50 [39]: 1.92 µM | TGI [39]: 18.1 µM | GI50 [40]: 0.793 µM | TGI [40]: 19.5 µM | GI50 [41]: 0.493 µM | TGI [41]: 5.87 µM | GI50 [42]: 0.269 µM | TGI [42]: 1.48 µM | GI50 [43]: 0.509 µM | TGI [43]: 2.09 µM | GI50 [44]: 0.399 µM | TGI [44]: 1.9 µM | GI50 [45]: 1.14 µM | TGI [45]: 9.4 µM | GI50 [46]: 0.59 µM | TGI [46]: 3.97 µM | GI50 [47]: 0.611 µM | GI50 [48]: 1.38 µM | TGI [48]: 8.89 µM | GI50 [49]: 0.144 µM | TGI [49]: 0.558 µM | GI50 [50]: 1.15 µM | TGI [50]: 6.77 µM | GI50 [51]: 0.105 µM | TGI [51]: 0.958 µM | GI50 [52]: 1.07 µM | TGI [52]: 5.5 µM | GI50 [53]: 0.347 µM | TGI [53]: 5.43 µM | GI50 [54]: 0.245 µM | TGI [54]: 1.04 µM | GI50 [55]: < 0.0327 µM | TGI [55]: 0.341 µM | GI50 [56]: 0.807 µM | TGI [56]: 5.98 µM | GI50 [57]: 0.305 µM | TGI [57]: 4.03 µM
